Measured values reported in the supplement of paper PMC10307832.

What was measured:
Experiment in all cases: relative viability (nuclei count vs DMSO), 5 days (fraction); higher = more cells survive
[1] = compound: CCCS(=O)(=O)Nc1ccc(F)c(C(=O)c2c[nH]c3ncc(-c4ccc(Cl)cc4)cc23)c1F [Vemurafenib] + O=C(c1cc(Cc2n[nH]c(=O)c3ccccc23)ccc1F)N1CCN(C(=O)C2CC2)CC1 [Olaparib] (partner 8 µM)
How it was run: (§1)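 Relative viability equals treated-well nuclei counts divided by vehicle-well nuclei counts. Counts came from 4× images of lung cancer cell lines grown in 1536-well plates for 5 days after pin-tool dosing on the day after seeding. Dosing used one drug alone or a fixed anchor-drug dose plus five library-drug doses (not always all listed) in √10 steps, and values are medians of duplicate plates.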

[2] = compound: Cc1nc(NC(=O)N2CCC[C@H]2C(N)=O)sc1-c1ccnc(C(C)(C)C(F)(F)F)c1 [Alpelisib] + CS(=O)(=O)N1CCN(Cc2cc3nc(-c4cccc5[nH]ncc45)nc(N4CCOCC4)c3s2)CC1 [Pictilisib] (partner 1 µM)
How it was run: as §1

[3] = compound: COc1cccc2cc(-c3nc([C@H]4CC[C@H](C(=O)O)CC4)n4ncnc(N)c34)[nH]c12 [OSI-027] + O=C(CCCCCCC(=O)Nc1ccccc1)NO [Vorinostat] (partner 1 µM)
How it was run: as §1

[4] = compound: CCCS(=O)(=O)Nc1ccc(F)c(C(=O)c2c[nH]c3ncc(-c4ccc(Cl)cc4)cc23)c1F [Vemurafenib] + COc1cccc2cc(-c3nc([C@H]4CC[C@H](C(=O)O)CC4)n4ncnc(N)c34)[nH]c12 [OSI-027] (partner 0.5 µM)
How it was run: as §1

Cell Line | relative viability ([1]; first compound 0.03162 µM) | relative viability ([1]; first compound 0.1 µM) | relative viability ([1]; first compound 0.3162 µM) | relative viability ([1]; first compound 1 µM) | relative viability ([2]; first compound 0.04 µM) | relative viability ([2]; first compound 0.1265 µM) | relative viability ([2]; first compound 0.4 µM) | relative viability ([2]; first compound 1.265 µM) | relative viability ([2]; first compound 4 µM) | relative viability ([3]; first compound 0.01 µM) | relative viability ([3]; first compound 0.03162 µM) | relative viability ([3]; first compound 0.1 µM) | relative viability ([3]; first compound 0.3162 µM) | relative viability ([3]; first compound 1 µM) | relative viability ([4]; first compound 0.03162 µM) | relative viability ([4]; first compound 0.1 µM) | relative viability ([4]; first compound 0.3162 µM) | relative viability ([4]; first compound 1 µM)
ABC-1 | 1.12 | 0.8 | 0.6 | 0.93 | 0.721 | 0.775 | 1.05 | 0.627 | 0.477 | 0.764 | 1.19 | 0.66 | 0.67 | 0.758 | 0.417 | 0.435 | 0.539 | 0.474
NCI-H1299 | 0.906 | 0.954 | 0.863 | 0.792 | 0.871 | 0.76 | 0.793 | 0.796 | 0.599 |  |  |  |  |  |  |  |  | 
LU99A | 0.245 | 0.259 |  | 0.264 | 0.293 | 0.278 | 0.374 | 0.296 | 0.251 | 0.491 | 0.667 | 0.396 | 0.304 | 0.232 | 0.325 | 0.28 | 0.244 | 0.287
NCI-H2009 | 0.61 | 0.661 | 0.612 | 0.652 | 0.805 | 0.773 | 1.02 | 0.767 | 0.52 | 0.735 | 0.718 | 0.708 | 0.675 | 0.588 | 0.606 | 0.483 | 0.389 | 0.325
LCLC-97TM1 |  | 0.416 | 0.353 | 0.269 | 0.178 | 0.175 | 0.179 | 0.195 | 0.21 | 0.816 | 0.642 | 0.699 | 0.503 | 0.345 | 0.49 | 0.612 | 0.713 | 0.43
NCI-H1915 | 0.263 | 0.25 | 0.242 | 0.244 | 0.925 | 0.987 | 1.02 | 0.908 | 0.766 | 0.542 | 0.502 | 0.479 | 0.426 | 0.34 | 0.585 | 0.639 | 0.471 | 0.533
NCI-H2342 | 0.401 | 0.429 | 0.608 | 0.354 |  |  |  |  |  | 0.715 | 0.611 | 0.683 | 0.768 | 0.547 | 0.621 | 0.561 | 0.577 | 0.643
EKVX | 0.891 |  | 0.898 | 0.911 | 0.441 | 0.419 | 0.419 | 0.466 | 0.428 | 0.661 | 0.618 | 0.649 | 0.561 | 0.4 | 0.634 |  | 0.791 | 0.688
HCC-78 | 0.73 | 0.784 | 1.13 | 0.881 | 0.21 | 0.187 | 0.218 | 0.222 | 0.228 | 0.477 | 0.326 | 0.384 | 0.329 | 0.268 | 0.366 | 0.322 | 0.649 | 0.398
A549 | 0.315 | 0.323 | 0.186 | 0.249 | 0.464 | 0.504 | 0.529 | 0.414 | 0.338 |  |  |  |  |  |  |  |  | 
NCI-H2126 | 0.835 | 0.956 | 0.92 | 0.922 | 0.499 | 0.506 | 0.496 | 0.491 | 0.501 | 0.703 | 0.682 | 0.692 | 0.627 | 0.586 | 0.606 | 0.591 | 0.856 | 0.651
HCC-827 | 0.624 |  | 0.65 | 0.632 | 0.887 | 1.18 | 0.933 | 0.973 | 0.651 | 0.61 | 0.851 | 0.768 | 0.852 | 0.475 | 0.754 |  | 0.766 | 0.704
NCI-H1650 | 0.677 | 0.626 | 0.844 | 0.791 | 0.625 | 0.488 | 0.631 | 0.595 | 0.494 | 0.56 | 0.515 | 0.532 | 0.407 | 0.358 |  | 0.448 |  | 0.537
NCI-H1703 | 0.432 | 0.307 | 0.454 | 0.515 | 0.254 | 0.249 | 0.227 | 0.235 | 0.26 |  |  |  |  |  |  |  |  | 
LK-2 | 0.618 | 0.633 | 0.644 | 0.417 | 0.531 | 0.571 | 0.643 | 0.524 | 0.578 | 0.272 | 0.296 | 0.244 | 0.176 | 0.179 | 0.194 | 0.21 | 0.228 | 0.158
PC-14 | 0.292 |  | 0.304 | 0.292 | 0.703 | 0.858 | 0.898 | 0.6 | 0.611 | 0.734 | 0.72 | 0.585 | 0.698 | 0.445 | 0.822 |  | 0.741 | 0.767
EBC-1 | 0.451 | 0.657 | 0.723 | 0.649 | 0.417 | 0.345 | 0.412 | 0.298 | 0.349 |  |  |  |  |  |  |  |  | 
SW 900 | 0.812 | 0.607 | 0.939 | 0.994 |  |  |  |  |  | 0.545 | 0.592 | 0.386 | 0.421 | 0.206 | 0.527 | 0.545 | 0.535 | 0.433
NCI-H1563 |  |  |  |  | 0.647 | 0.734 | 0.67 | 0.613 | 0.676 |  |  |  |  |  | 0.693 | 0.757 | 0.734 | 0.723
NCI-H522 | 0.667 | 0.543 | 0.669 | 0.725 |  |  |  |  |  | 0.768 | 1.02 | 0.883 | 0.686 | 0.638 | 0.778 | 0.635 | 0.638 | 0.697
NCI-H1623 |  |  |  |  |  |  |  |  |  |  |  |  |  |  | 0.405 |  | 0.521 | 0.419
NCI-H1792 | 0.404 | 0.45 |  | 0.441 | 0.227 | 0.306 | 0.309 | 0.253 | 0.206 |  |  |  |  |  | 0.705 | 0.616 |  | 0.704
